Experimental data from patent US20180071317A1, “USE OF AGENTS THAT ALTER THE PERITUMORAL ENVIRONMENT FOR THE TREATMENT OF CANCER” (SERVICIO ANDALUZ DE SALUD, priority 2011, published 2018).

What was measured:
[1] = tested on: fibroblasts (PHF) co-cultured with tumor cells of lung carcinoma (A-427); assay: Marker expression (IHC) in PHF co-cultured with A-427 tumor cells; assay type: cell-based, human; settings: co-culture with A-427 lung carcinoma; SP 1 μM + antagonist 1 μM; 48 h;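 also: cultures grown in human blood plasma from a healthy donor, value is the percentage of fibroblasts positive for each marker, six replicates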
Protocol: (§1) All cultures were maintained 48 hours, following which the same cells were included in paraffin blocks for subsequent analysis of the expression of different markers by immunohistochemistry (see Example 1). […] All experiments were carried out sixfold. Analyzed markers in fibroblast cells (stromal cells) were: TGF-α, TGF-β1, TGF-β2, TGF-β3, SPARC, MMP-3, MMP-7, MMP-9, MMP-11, MMP-13 and MMP-14.

[2] = tested on: fibroblasts (PHF) co-cultured with human fibrosarcoma tumor cells (HT-1080); assay: Marker expression (IHC) in PHF co-cultured with HT-1080 tumor cells; assay type: cell-based; settings: co-culture with HT-1080; SP 1 μM + antagonist 1 μM; 48 h;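 also: cultures grown in fresh human plasma from a healthy donor, six replicates, value is percent of fibroblasts positive for the marker, compared with fibroblasts cultured without tumor cells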
Protocol: as §1

[3] = tested on: fibroblasts (PHF) co-cultured with human melanoma tumor cells (MEL-HO1); assay: Marker expression (IHC) in PHF co-cultured with MEL-HO1 tumor cells; assay type: cell-based; settings: PHF co-cultured with MEL-HO1 + SP + NK1 antagonist;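 also: values are the percentage of fibroblasts positive for each marker, with cultures grown in fresh healthy-donor blood plasma and each experiment run six times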
Protocol: as §1

[4] = tested on: fibroblasts (PHF) cells co-cultured with human T lymphoma tumor (DERL-7); assay: Marker expression (IHC) in PHF co-cultured with DERL-7 tumor cells; assay type: cell-based; settings: PHF co-cultured with DERL-7 + SP + NK1 antagonist
Protocol: All cultures were maintained 48 hours, following which the same cells were included in paraffin blocks for subsequent analysis of the expression of different markers by immunohistochemistry (see Example 1). The primary antibodies used to perform immunohistochemical assays and their concentration are detailed in Example 2. All experiments were carried out sixfold. Analyzed markers in fibroblast cells (stromal cells) were: TGF-α, TGF-β1, TGF-β2, TGF-β3, SPARC, MMP-3, MMP-7, MMP-9, MMP-11, MMP-13 and MMP-14.

[5] = tested on: fibroblasts of tumors produced by lung carcinoma non small cell human (HCC-44) cells; assay: Marker expression (IHC) in fibroblasts of tumor or peritumoral area, mouse model, HCC-44; assay type: in vivo; settings: HCC-44 tumors in mice, 30 mg/kg/day oral, 7 days
Protocol: The expression on fibroblast cells obtained in the animal model was analyzed by immunohistochemistry, of the above markers: TGF-α, TGF-β1, TGF-β2, TGF-β3, MMP-7, MMP-1 1, MMP-14MP-14. […] This process was realized in mice treated with non-peptide antagonists of NK1 receptor and in untreated animals (control).

[6] = tested on: fibroblasts of tumors produced by tumor cell line of human melanoma (MEL HO); assay: Marker expression (IHC) in fibroblasts of tumor or peritumoral area, mouse model, MEL HO; assay type: in vivo; settings: MEL HO tumors in mice, 30 mg/kg/day oral, 7 days
Protocol: In vitro tests conducted in Example 5 are now carried out in an experimental model in mice in vivo. […] Subsequently, the expression in fibroblasts tumoral and peritumoral area of molecular markers associated with progression and maintenance of tumors: TGF-α, TGF-β1, TGF-β2, TGF-β3, MMP-7, MMP-11, MMP-14 were analyzed by immunohistochemistry.
Were injected with 2×10^7 cells tumors (corresponding, in each case to each of the tumor types as specified in Table 9) in 200 of PBS subcutaneously μl. […] Mice were randomized into two groups when the tumors reached a volume of 75 mm^3 One group was treated with non-peptide receptor antagonists NK1 and the other with placebo 200μ1. […] Tumors and samples of non-neoplastic stromal areas remote from the tumor were halved, formalin fixed (4%) and then were included in paraffin blocks for analysis by immunohistochemistry.
The expression on fibroblast cells obtained in the animal model was analyzed by immunohistochemistry, of the above markers: TGF-α, TGF-β1, TGF-β2, TGF-β3, MMP-7, MMP-1 1, MMP-14MP-14. Tables 32 to 35 depict the type of label used and the average percentage of fibroblasts present in non-tumor areas, tumor and peritumoral (±SD) which were expressing the marker shown in each of the tumor types developed from of the different cell lines used. This process was realized in mice treated with non-peptide antagonists of NK1 receptor and in untreated animals (control).

CC(=O)N1CCN([C@H]2CCN(C(=O)N(C)[C@H](C)c3cc(C(F)(F)F)cc(C(F)(F)F)c3)[C@@H](c3ccc(F)cc3C)C2)CC1 [Casopitant]
0%: PHF cells expressing MMP-3 [1] | PHF cells expressing MMP-7 [1] | PHF cells expressing MMP-9 [1] | PHF cells expressing MMP-11 [1] | PHF cells expressing MMP-13 [1] | PHF cells expressing MMP-14 [1] | PHF cells expressing SPARC [1] | PHF cells expressing TGF-α [1] | PHF cells expressing TGF-β1 [1] | PHF cells expressing TGF-β2 [1] | PHF cells expressing TGF-β3 [1] | PHF cells expressing MMP-3 [2] | PHF cells expressing MMP-7 [2] | PHF cells expressing MMP-9 [2] | PHF cells expressing MMP-11 [2] | PHF cells expressing MMP-13 [2] | PHF cells expressing MMP-14 [2] | PHF cells expressing SPARC [2] | PHF cells expressing TGF-α [2] | PHF cells expressing TGF-β1 [2] | PHF cells expressing TGF-β2 [2] | PHF cells expressing TGF-β3 [2] | cells expressing MMP-3 [3] | cells expressing MMP-7 [3] | cells expressing MMP-9 [3] | cells expressing MMP-11 [3] | cells expressing MMP-13 [3] | cells expressing MMP-14 [3] | cells expressing SPARC [3] | cells expressing TGF-α [3] | cells expressing TGF-β1 [3] | cells expressing TGF-β2 [3] | cells expressing TGF-β3 [3] | cells expressing MMP-3 [4] | cells expressing MMP-7 [4] | cells expressing MMP-9 [4] | cells expressing MMP-11 [4] | cells expressing MMP-13 [4] | cells expressing MMP-14 [4] | cells expressing SPARC [4] | cells expressing TGF-α [4] | cells expressing TGF-β1 [4] | cells expressing TGF-β2 [4] | cells expressing TGF-β3 [4] | fibroblasts expressing MMP-7 [5] | fibroblasts expressing MMP-11 [5] | fibroblasts expressing MMP-14 [5] | fibroblasts expressing TGF-α [5] | fibroblasts expressing TGF-β 1 [5] | fibroblasts expressing TGF-β 2 [5] | fibroblasts expressing TGF-β 3 [5] | fibroblasts expressing MMP-7 [6] | fibroblasts expressing MMP-11 [6] | fibroblasts expressing MMP-14 [6] | fibroblasts expressing TGF-α [6] | fibroblasts expressing TGF-β 1 [6] | fibroblasts expressing TGF-β 2 [6] | fibroblasts expressing TGF-β 3 [6]
